Reference: ChEMBL document CHEMBL3046421, “Transition metals in organic synthesis - Part 83#: Synthesis and pharmacological potential of carbazoles” (Med Chem Res, 2008)
In brackets after ≈: the same amount, converted by molar mass.

Columns and labels:
Vero = test: Cytotoxicity against Chlorocebus aethiops (African green monkey) Vero cells; assay type: cell-based; conditions: Chlorocebus sabaeus
[1] = Selectivity index, ratio of IC50 for african green monkey Vero cells to MIC90 for Mycobacterium tuberculosis H37Rv; assay type: toxicity, cell-based; conditions: read-out: Selectivity Index
[2] = test system: Mycobacterium tuberculosis; test: Antimycobacterial activity against Mycobacterium tuberculosis H37Rv by microplate alamar blue assay; assay type: functional
[3] = test system: Mycobacterium tuberculosis; test: Antimycobacterial activity against Mycobacterium tuberculosis H37Rv; assay type: functional
[4] = target: T1, Polyunsaturated fatty acid 5-lipoxygenase (Rattus norvegicus, UniProt P12527); test: Inhibition of Rattus norvegicus (rat) 5-lipoxygenase
T1 sequence (P12527 whole entry): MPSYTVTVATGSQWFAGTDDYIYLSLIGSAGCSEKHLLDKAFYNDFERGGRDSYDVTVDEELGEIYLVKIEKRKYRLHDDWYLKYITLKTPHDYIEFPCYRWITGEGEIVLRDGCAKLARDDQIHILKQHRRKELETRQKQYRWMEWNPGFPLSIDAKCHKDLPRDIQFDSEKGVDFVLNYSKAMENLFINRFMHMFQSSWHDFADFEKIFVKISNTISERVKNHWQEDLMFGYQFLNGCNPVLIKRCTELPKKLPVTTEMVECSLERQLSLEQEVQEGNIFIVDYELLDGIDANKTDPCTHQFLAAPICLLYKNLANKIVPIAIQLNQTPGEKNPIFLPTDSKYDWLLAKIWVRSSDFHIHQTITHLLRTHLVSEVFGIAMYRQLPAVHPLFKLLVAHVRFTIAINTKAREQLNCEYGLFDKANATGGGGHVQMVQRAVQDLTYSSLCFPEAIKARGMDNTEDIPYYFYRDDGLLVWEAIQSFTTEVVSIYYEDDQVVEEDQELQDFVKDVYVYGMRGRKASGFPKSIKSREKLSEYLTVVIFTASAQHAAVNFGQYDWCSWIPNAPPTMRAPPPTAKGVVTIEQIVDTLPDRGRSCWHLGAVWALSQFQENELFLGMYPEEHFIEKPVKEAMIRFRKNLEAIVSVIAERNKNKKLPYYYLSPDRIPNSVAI

Brain = test: Inhibition of free-radical-induced lipid peroxidation in Rattus norvegicus (rat) brain homogenates; assay type: functional, tissue-based
[5] = test system: Mycobacterium tuberculosis; test: Antimycobacterial activity against Mycobacterium tuberculosis H37Ra; assay type: functional
Plasmodium falciparum = test: Antiplasmodial activity against Plasmodium falciparum; assay type: functional, organism-based

Compound	IC50 (Vero) [µM]	selectivity ratio [1]	MIC90 [2] [µM]	other results
COc1ccc2[nH]c3ccc(C=O)cc3c2c1	> 128	> 1.3	99 (≈ 22.3 µg/mL)	MIC90 [3]: 15.6 µg/mL (≈ 69.3 µM)
COC(=O)c1ccc2[nH]c3ccc(OC)cc3c2c1	> 128	> 4	32 (≈ 8.17 µg/mL)	–
COc1c(C)c(C[C@@H](C)OC(C)=O)c2[nH]c3ccc(Br)cc3c2c1OC(C)=O	25	0.5	55 (≈ 24.7 µg/mL)	–
COc1ccc2c(c1)[nH]c1cc(OC)c(C)cc12	> 128	–	> 128	–
Cc1c(O)cc2c([nH]c3c(O)ccc(CO)c32)c1C1OC1(C)CCC(C)C (racemic) [RAC-EPOCARBAZOLIN A]	–	–	–	IC50 [4]: 2.4 µM
COC1=C(C)C(=O)c2[nH]c3ccccc3c2C1=O [3-METHOXY-2-METHYLCARBAZOLE-1,4-QUINONE]	> 128	> 16	8 (≈ 1.93 µg/mL)	–
COc1ccc2[nH]c3ccc(C=O)cc3c2c1Br [5-BROMO-3-FORMYL-6-METHOXYCARBAZOLE]	78	< 0.6	> 128	–
COc1ccc2c(c1)[nH]c1ccc(C)cc12 [7-METHOXY-3-METHYLCARBAZOLE]	–	–	> 128	–
COc1c(C)c(C[C@@H](C)O)c2[nH]c3ccc(CC=C(C)C)cc3c2c1O [(R)-(-)-NEOCARAZOSTATIN B]	–	–	–	IC50 (Brain): 0.39 µM
COC(=O)c1ccc2[nH]c3cc(OC)ccc3c2c1 [CLAUSINE C]	–	–	> 128	–
COc1ccc2c(c1)[nH]c1cc(OC)c(C(=O)O)cc12 [CLAUSINE K]	25	< 0.2	> 128	MIC90 [5]: 100 µg/mL (≈ 369 µM)
COC(=O)c1ccc2[nH]c3cc(O)ccc3c2c1 [CLAUSINE M]	35	1.8	19 (≈ 4.58 µg/mL)	–
COc1ccc2c(c1)[nH]c1ccc(C(=O)O)cc12 [CLAUSINE N]	–	–	> 128	–
O=Cc1cc2c(cc1O)[nH]c1cc(O)ccc12 [CLAUSINE O]	114	1.3	89 (≈ 20.2 µg/mL)	–
COC(=O)c1cc2c(cc1OC)[nH]c1cc(OC)ccc12 [CLAUSZOLINE C]	–	–	–	IC50 (Plasmodium falciparum): 5.5 µg/mL (≈ 19.3 µM)
COc1ccc2c(c1)[nH]c1ccc(C=O)cc12 [CLAUSZOLINE K]	–	–	> 128	–
CC[C@H](C)CCC1(C)OC1c1c(C)c(O)cc2c1[nH]c1c(O)ccc(CO)c12 (stereo partly specified) [EPOCARBAZOLIN B]	–	–	–	IC50 [4]: 2.6 µM
Cc1ccc2[nH]c3ccc4occc4c3c2c1 [EUSTIFOLINE-D]	> 128	–	> 128	–
COc1ccc2[nH]c3ccc(C)cc3c2c1 [GLYCOZOLINE]	–	–	> 128	–
Cc1ccc2[nH]c3ccc(O)cc3c2c1 [GLYCOZOLININE]	57	0.5	123 (≈ 24.3 µg/mL)	–
NNC(=O)c1ccncc1 [ISONIAZID]	> 128	> 320	0.4 (≈ 0.0549 µg/mL)	–
COc1ccc2c(c1)[nH]c1cc(OC)c(C=O)cc12 [LANSINE]	96	< 0.8	> 128	–
CC(C)=CCc1c(O)ccc2[nH]c3ccc(C=O)cc3c12 [MICROMELINE]	–	–	> 128	MIC90 [3]: 31.5 µg/mL (≈ 113 µM)
CO[C@H]1/C=C/O[C@@]2(C)Oc3c(C)c(O)c4c(O)c(c(/C=N/N5CCN(C)CC5)c(O)c4c3C2=O)NC(=O)/C(C)=C\C=C\[C@H](C)[C@H](O)[C@@H](C)[C@@H](O)[C@@H](C)[C@H](OC(C)=O)[C@@H]1C [RIFAMPIN]	105	1170	0.09 (≈ 0.0741 µg/mL)	–
CC(C)=CCc1cc2c(cc1O)[nH]c1ccc(C)cc12 [SIAMENOL]	15	0.7	22 (≈ 5.84 µg/mL)	–
